# Test results reported in patent publication US7473790B2 (Pfizer Inc., priority 2003, dated 2009).
# Biological target: T1, HCV polymerase (Hepatitis C virus genotype 1b, UniProt P26663)
# T1 construct: 2.5 pmoles (0.15 μg) HCV polymerase protein in a final volume of 75 μL
# Test: HCV polymerase primer/template-directed transcription assay (32P-GTP incorporation, filter binding)
# Format: biochemical
# Details: @ 20 uM compound; given where IC50 was impractical to calculate; read-out: percent inhibition
# How it was run: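 Recombinant genotype 1b polymerase (30 nM) extended biotin-dG12 primer on poly(rC)300 template with 1 μM GTP plus α-32P-GTP, pH 7.2, 10 mM MgCl2, 30 min at 30° C, 1% DMSO final. Products captured on DE filters and counted. IC50 fitted from triplicate cpm, with a tight-binding correction applied below 200 nM.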
# T1 sequence (P26663 2420-3010): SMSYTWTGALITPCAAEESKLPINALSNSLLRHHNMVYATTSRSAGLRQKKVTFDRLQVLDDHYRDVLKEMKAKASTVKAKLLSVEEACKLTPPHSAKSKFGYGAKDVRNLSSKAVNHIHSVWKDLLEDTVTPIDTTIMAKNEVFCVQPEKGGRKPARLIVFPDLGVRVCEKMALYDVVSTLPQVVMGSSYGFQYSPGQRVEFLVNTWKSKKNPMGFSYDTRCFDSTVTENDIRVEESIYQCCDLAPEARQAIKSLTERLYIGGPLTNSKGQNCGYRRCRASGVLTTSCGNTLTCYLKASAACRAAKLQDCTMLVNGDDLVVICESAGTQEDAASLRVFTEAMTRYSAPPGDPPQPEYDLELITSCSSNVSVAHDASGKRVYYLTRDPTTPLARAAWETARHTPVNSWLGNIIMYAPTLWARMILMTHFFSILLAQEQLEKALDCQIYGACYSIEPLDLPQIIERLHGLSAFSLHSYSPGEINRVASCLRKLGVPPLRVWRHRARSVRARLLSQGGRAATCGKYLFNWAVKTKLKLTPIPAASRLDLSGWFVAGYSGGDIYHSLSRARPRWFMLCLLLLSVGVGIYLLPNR
row,SMILES,inhibition at 20 µM [%]
1,"CCC1(CCc2ccc(OC)cc2)CC(O)=C(Sc2nc3cc(Cl)ccc3n2C(C)C)C(=O)O1 (stereo not shown) [C(15), 3-(5-Chloro-1-isopropyl-1H-benzoimidazol-2-ylsulfanyl)-6-ethyl-4-hydroxy-6-[2-(4-methoxy-phenyl)-ethyl]-5,6-dihydro-pyran-2-one]",22

# Same assay, conditions: @ 50 uM compound; given where IC50 was impractical to calculate; read-out: percent inhibition
row,SMILES,inhibition at 50 µM [%]
1,"CCC1(CC)CC(O)=C(Sc2nc3cc(Cl)ccc3n2C(C)C)C(=O)O1 [C(19), 3-(5-Chloro-1-isopropyl-1H-benzoimidazol-2-ylsulfanyl)-6,6-diethyl-4-hydroxy-5,6-dihydro-pyran-2-one]",22

# Same assay, conditions: recombinant HCV polymerase; 30 minutes at 30° C.; concentration giving 50% inhibition of polymerase-directed transcription; read-out: IC50
row,SMILES,IC50 [nM]
1,"CCNC(=O)c1ccc(CCC2(C3CCCC3)CC(=O)CC(=O)O2)cc1F (stereo not shown) [A(17), 4-[2-(2-Cyclopentyl-4,6-dioxo-tetrahydro-pyran-2-yl)-ethyl]-N-ethyl-2-fluoro-benzamide]",23000
2,"O=C1CC(=O)OC(CCNC(=O)c2ccco2)(C2CCCC2)C1 (stereo not shown) [H(2), Furan-2-carboxylic acid [2-(2-cyclopentyl-4,6-dioxo-tetrahydro-pyran-2-yl)-ethyl]-amide]",51000
3,"COc1ccc(CCC2(C3CCCC3)CC(O)=C(Sc3nc4cncnc4[nH]3)C(=O)O2)cc1Cl (stereo not shown) [C(65), 6-[2-(3-chloro-4-methoxyphenyl)ethyl]-6-cyclopentyl-4-hydroxy-3-(9H-purin-8-ylthio)-5,6-dihydro-2H-pyran-2-one]",54
4,"COc1ccc(CCC2(C3CCCC3)CC(O)=C(Sc3nc4nccc(C)n4n3)C(=O)O2)cc1Cl (stereo not shown) [C(95), 6-[2-(3-chloro-4-methoxyphenyl)ethyl]-6-cyclopentyl-4-hydroxy-3-[(7-methyl[1,2,4]triazolo[1,5-a]pyrimidin-2-yl)thio]-5,6-dihydro-2H-pyran-2-one]",74
5,"Cc1cnc2nc(CC3=C(O)CC(CCc4ccc(C5(C#N)CCC5)c(F)c4)(C4CCCC4)OC3=O)nn2c1 (stereo not shown) [A(239), 1-(4-{2-[2-Cyclopentyl-4-hydroxy-5-(6-methyl-[1,2,4]triazolo[1,5-a]pyrimidin-2-ylmethyl)-6-oxo-3,6-dihydro-2H-pyran-2-yl]-ethyl}-2-fluoro-phenyl)-cyclobutanecarbonitrile]",3
6,"Cn1cc(Cl)c(CC2=C(O)CC(CCc3ccc(C(C)(C)C#N)c(F)c3)(C3CCCC3)OC2=O)n1 (stereo not shown) [A(102), 2-[4-(2-{5-[(4-chloro-1-methyl-1H-pyrazol-3-yl)methyl]-2-cyclopentyl-4-hydroxy-6-oxo-3,6-dihydro-2H-pyran-2-yl}ethyl)-2-fluorophenyl]-2-methylpropanenitrile]",5
7,"O=C1CC(=O)OC(CCc2ccc(O)c(CO)c2)(C2CCCC2)C1 (stereo not shown) [A(195), 6-Cyclopentyl-6-[2-(4-hydroxy-3-hydroxymethyl-phenyl)-ethyl]-dihydro-pyran-2,4-dione]",11000
8,"COc1ccc(CCC2(C3CCCC3)CC(=O)C(Cc3ccc4ccccc4n3)C(=O)O2)cc1Cl (stereo not shown) [B(85), 6-[2-(3-chloro-4-methoxyphenyl)ethyl]-6-cyclopentyl-3-(quinolin-2-ylmethyl)dihydro-2H-pyran-2,4(3H)-dione]",740
